In patent US20240246964A1 (Arbutus Biopharma Corporation, priority 2021, published 2024):

Columns and labels:
[1] = target: PD-L1 His protein / PD-1 Fc protein (Homo sapiens (Human), UniProt Q9NZQ7); assay: HTRF Assay (PD-1/PD-L1 interaction); type: binding; conditions: PD-L1 His 6 nM, PD-1 Fc 6 nM
human PD-L1 = human PD-L1 (Homo sapiens (Human), UniProt Q9NZQ7); assay: T cell activation luciferase reporter cell culture system (T Cell Activation Assay); type: cell-based; conditions: luciferase reporter assay; PD-L1 aAPC/CHO-K1 cells with PD-1 effector Jurkat T cells
Sequence of human PD-L1 (Q9NZQ7 19-290): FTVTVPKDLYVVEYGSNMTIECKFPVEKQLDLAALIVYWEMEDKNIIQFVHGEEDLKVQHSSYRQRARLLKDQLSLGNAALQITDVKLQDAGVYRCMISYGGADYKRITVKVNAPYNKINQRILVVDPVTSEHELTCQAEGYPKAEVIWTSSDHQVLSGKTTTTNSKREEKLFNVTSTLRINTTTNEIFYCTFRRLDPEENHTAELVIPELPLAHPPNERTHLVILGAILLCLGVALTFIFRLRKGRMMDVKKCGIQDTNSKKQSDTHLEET

Sequence of PD-L1 His protein / PD-1 Fc protein (Q9NZQ7 19-238): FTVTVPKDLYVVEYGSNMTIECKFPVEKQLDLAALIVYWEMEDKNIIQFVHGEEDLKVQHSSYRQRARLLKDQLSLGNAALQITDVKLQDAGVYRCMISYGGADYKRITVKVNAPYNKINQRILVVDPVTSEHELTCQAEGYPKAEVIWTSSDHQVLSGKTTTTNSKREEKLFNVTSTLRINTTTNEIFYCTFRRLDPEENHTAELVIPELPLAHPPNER

Structure (SMILES)	IC50 [1]	EC50 (human PD-L1)
COc1nc(-c2ccnc(-c3cccc4c3CC[C@@H]4Oc3nc(OC)c(CNC[C@H](C)O)cc3C(F)(F)F)c2Cl)ccc1CNC[C@@H]1CCC(=O)N1 [Compound 128, (S)-5-((((3′-chloro-2′-((S)-1-((5-((((S)-2-hydroxypropyl)amino)methyl)-6-methoxy-3-(trifluoromethyl)pyridin-2-yl)oxy)-2,3-dihydro-1H-inden-4-yl)-6-methoxy-[2,4′-bipyridin]-5-yl)methyl)amino)methyl)pyrrolidin-2-one]	0.542 nM	9.11 nM
COc1nc(-c2ccnc(-c3cccc4c3CC[C@@H]4Oc3nc(OC)c(CNC4(C(=O)O)CC4)cc3C(F)(F)F)c2Cl)ccc1CNC[C@@H]1CCC(=O)N1 [Compound 129, 1-(((6-(((S)-4-(3′-chloro-6-methoxy-5-(((((S)-5-oxopyrrolidin-2-yl)methyl)amino)methyl)-[2,4′-bipyridin]-2′-yl)-2,3-dihydro-1H-inden-1-yl)oxy)-2-methoxy-5-(trifluoromethyl)pyridin-3-yl)methyl)amino)cyclopropane-1-carboxylic acid]	0.305 nM	16.4 nM
COc1cc(-c2nccc(-c3cccc(-c4ccc(CNC[C@@H]5CCC(=O)N5)c(OC)n4)c3Cl)c2Cl)ccc1CN[C@@H](C)C(=O)O [Compound 130, (4-(3-chloro-4-(2-chloro-3-(6-methoxy-5-(((((S)-5-oxopyrrolidin-2-yl)methyl)amino)methyl)pyridin-2-yl)phenyl)pyridin-2-yl)-2-methoxybenzyl)-L-alanine]	0.209 nM	158 nM
COc1cc(-c2nccc(-c3cccc(-c4cc(F)c(CNC[C@@H]5CCC(=O)N5)c(OC)n4)c3Cl)c2Cl)cc2c1CN(C[C@@H](C)O)CC2 [Compound 131, (S)-5-((((6-(2-chloro-3-(3-chloro-2-(2-((R)-2-hydroxypropyl)-8-methoxy-1,2,3,4-tetrahydroisoquinolin-6-yl)pyridin-4-yl)phenyl)-4-fluoro-2-methoxypyridin-3-yl)methyl)amino)methyl)pyrrolidin-2-one]	0.662 nM	35.4 nM
COc1cc(-c2nccc(-c3cccc(-c4cc(F)c(CNC[C@@H]5CCC(=O)N5)c(OC)n4)c3Cl)c2Cl)cc2c1CN(CCO)CC2 [Compound 132, (S)-5-((((6-(2-chloro-3-(3-chloro-2-(2-(2-hydroxyethyl)-8-methoxy-1,2,3,4-tetrahydroisoquinolin-6-yl)pyridin-4-yl)phenyl)-4-fluoro-2-methoxypyridin-3-yl)methyl)amino)methyl)pyrrolidin-2-one]	0.408 nM	51.2 nM
COc1cc(-c2nccc(-c3cccc(-c4ccc(CNC[C@@H]5CCC(=O)N5)c(OC)n4)c3Cl)c2Cl)ccc1CNC1(C(=O)OC(C)C)CC1 [Compound 135, isopropyl (S)-1-((4-(3-chloro-4-(2-chloro-3-(6-methoxy-5-((((5-oxopyrrolidin-2-yl)methyl)amino)methyl)pyridin-2-yl)phenyl)pyridin-2-yl)-2-methoxybenzyl)amino)cyclopropane-1-carboxylate]	31.2 nM	≥ 10000 nM
CNCc1ccc(-c2nccc(-c3cccc(-c4ccc(CNC)c(OC)n4)c3Cl)c2Cl)cc1OC [Compound 136, 1-(6-(2-chloro-3-(3-chloro-2-(3-methoxy-4-((methylamino)methyl)phenyl)pyridin-4-yl)phenyl)-2methoxypyridin-3-yl)-N-methylmethanamine]	0.708 nM	16.3 nM
COc1nc(-c2cccc(-c3ccnc(-c4ccc5c6c(n(C)c5c4)CCNC6)c3Cl)c2Cl)ccc1CNC[C@@H]1CCC(=O)N1 [Compound 141, (S)-5-((((6-(2-chloro-3-(3-chloro-2-(5-methyl-2,3,4,5-tetrahydro-1H-pyrido[4,3-b]indol-7-yl)pyridin-4-yl)phenyl)-2-methoxypyridin-3-yl)methyl)amino)methyl)pyrrolidin-2-one]	0.826 nM	≥ 10000 nM
COc1nc(-c2cccc(-c3ccnc(-c4ccc5c(c4)CN(CCNC[C@@H]4CCC(=O)N4)C5=O)c3Cl)c2Cl)ccc1CNC[C@H](C)O [Compound 142, 5-(3-chloro-4-(2-chloro-3-(5-((((S)-2-hydroxypropyl)amino)methyl)-6-methoxypyridin-2-yl)phenyl)pyridin-2-yl)-2-(2-((((S)-5-oxopyrrolidin-2-yl)methyl)amino)ethyl)isoindolin-1-one]	6.66 nM	3380 nM
COc1nc(-c2cccc(-c3ccnc(-c4ccc5c(c4)CN(CCNC[C@@H]4CCC(=O)N4)C5=O)c3Cl)c2Cl)ccc1CNC1CCN(C(C)=O)CC1 [Compound 143, (S)-5-(4-(3-(5-(((1-acetylpiperidin-4-yl)amino)methyl)-6-methoxypyridin-2-yl)-2-chlorophenyl)-3-chloropyridin-2-yl)-2-(2-(((5-oxopyrrolidin-2-yl)methyl)amino)ethyl)isoindolin-1-one]	3.94 nM	5440 nM
COc1nc(-c2cccc(-c3ccnc(-c4ccc5c(c4)CN(CCNC[C@@H]4CCC(=O)N4)C5=O)c3Cl)c2Cl)ccc1CN1CC2(C1)CN(C(C)=O)C2 [Compound 144, (S)-5-(4-(3-(5-((6-acetyl-2,6-diazaspiro[3.3]heptan-2-yl)methyl)-6-methoxypyridin-2-yl)-2-chlorophenyl)-3-chloropyridin-2-yl)-2-(2-(((5-oxopyrrolidin-2-yl)methyl)amino)ethyl)isoindolin-1-one]	2.68 nM	≥ 10000 nM
COc1cc(-c2nccc(-c3cccc(-c4ccc(CNC[C@@H]5CCC(=O)N5)c(OC)n4)c3Cl)c2Cl)cc(F)c1CN1CC2(CNC(=O)C2)C1 [Compound 145, (S)-2-(4-(3-chloro-4-(2-chloro-3-(6-methoxy-5-((((5-oxopyrrolidin-2-yl)methyl)amino)methyl)pyridin-2-yl)phenyl)pyridin-2-yl)-2-fluoro-6-methoxybenzyl)-2,6-diazaspiro[3.4]octan-7-one]	2.02 nM	17.7 nM
COc1cc(-c2nccc(-c3cccc(-c4ccc(CNC[C@@H]5CCC(=O)N5)c(OC)n4)c3Cl)c2Cl)cc(F)c1CN1CC2(CC(O)C2)C1 [Compound 146, (S)-5-((((6-(2-chloro-3-(3-chloro-2-(3-fluoro-4-((6-hydroxy-2-azaspiro[3.3]heptan-2-yl)methyl)-5-methoxyphenyl)pyridin-4-yl)phenyl)-2-methoxypyridin-3-yl)methyl)amino)methyl)pyrrolidin-2-one]	0.77 nM	61.1 nM
COc1cc(-c2nccc(-c3cccc(-c4ccc(CNC[C@@H]5CCC(=O)N5)c(OC)n4)c3Cl)c2Cl)cc(F)c1CNCCCF [Compound 147, (S)-5-((((6-(2-chloro-3-(3-chloro-2-(3-fluoro-4-(((3-fluoropropyl)amino)methyl)-5-methoxyphenyl)pyridin-4-yl)phenyl)-2-methoxypyridin-3-yl)methyl)amino)methyl)pyrrolidin-2-one]	1.96 nM	42.7 nM
COc1cc(-c2nccc(-c3cccc(-c4ccc(CNC[C@@H]5CCC(=O)N5)c(OC)n4)c3Cl)c2Cl)cc(F)c1CNC1CCN(C(C)=O)CC1 [Compound 148, (S)-5-((((6-(3-(2-(4-(((1-acetylpiperidin-4-yl)amino)methyl)-3-fluoro-5-methoxyphenyl)-3-chloropyridin-4-yl)-2-chlorophenyl)-2-methoxypyridin-3-yl)methyl)amino)methyl)pyrrolidin-2-one]	1.11 nM	19.5 nM
